Test results from publication PMC12022980, “Rational Design of PROTAC Linkers Featuring Ferrocene as a Molecular Hinge to Enable Dynamic Conformational Changes” (Journal of the American Chemical Society, 2025).
Converted amounts (≈) assume the structure as drawn. Like-named read-outs stand apart in the source and are kept apart here.

Assays:
[1] = target: T1, pVHL30 (Homo sapiens, UniProt P40337); test: Western blot VHL degradation in HEK293 cells; format: cell-based; conditions: HEK293, 4 h, 1 μM
T1 construct: endogenous in cells; host or cells: HEK293 (ATCC)
T1 sequence (P40337 whole entry): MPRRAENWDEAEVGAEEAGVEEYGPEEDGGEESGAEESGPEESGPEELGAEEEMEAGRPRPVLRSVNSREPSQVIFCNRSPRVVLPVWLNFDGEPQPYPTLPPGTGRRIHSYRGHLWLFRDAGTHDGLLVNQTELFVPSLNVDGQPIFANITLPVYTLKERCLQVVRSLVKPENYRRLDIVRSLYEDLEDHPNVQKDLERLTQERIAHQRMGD
Description: To further elucidate the mode of action of FerroTAC AS2, we explored its dependency on ubiquitination and proteasome activity.
A) Representative immunoblots of VHL protein levels after treatment of
HEK293 cells. Cells were treated with 0.1% EtOH, 0.1 μM or 1 μM of the indicated compounds for 4 and 24 h.
Controls were included at 1 μM for 24 h. Mean values of two biologically independent experiments.
Representative time-course immunoblots of VHL protein levels after treatment of HEK293 cells treated with
Cells were treated with 0.1% EtOH and controls at 1 μM. Mean values of two biologically
independent experiments. Apparent half-life values (t 1/2) were estimated by fitting band intensity against time
using a single-phase exponential decay model. C) Representative immunoblots of VHL protein levels in
neddylation inhibitor MLN4924 (3 μM) and VHL inhibitor VH032 (50 μM). The amount of EtOH (0.1%) and
DMSO (0.5%) is fixed in all samples. Band quantification was performed using ImageJ software and reported
(in black and black) as relative amount as ratio of each protein band relative to the lane’s loading control
(tubulin). VHL/tubulin protein ratios were normalised to the average of the controls (100%).
HEK293 and HCT116 cell lines, purchased from ATCC, were cultured in Dulbecco’s modified Eagle’s medium (DMEM, Gibco) supplemented with 10% fetal bovine serum (FBS, Gibco), L-glutamine (2 mM, Gibco) and 100 μg/mL of penicillin/streptomycin (Gibco). All cell lines were maintained in a humidified incubator at 37 °C and 5% CO2 for no more than 30 passages. Cells were routinely tested for mycoplasma contamination.
Cell Treatment for Immunoblotting
depending on the experimental setup. Cells were treated in fresh medium with the indicated compounds under indicated conditions with a final EtOH or iPrOH concentration of 0.01% (v/v) to 0.1% (v/v) depending on the experimental setup. […]
stored at −80°C. Protein concentration was determined by bicinchoninic acid (BCA) assay (Thermo Fisher […]
Quantitative Immunoblotting […]

[2] = system: HCT116 cells; test: Cell viability assay (CellTiter-Glo); format: cell-based; conditions: Homo sapiens, HCT-116, 72 h; read-out: IC50 ± S.D. HCT116
Description: (§1) Therefore, we assessed the impact of the BET-degrading FerroTAC AS6 on the viability of BET-sensitive HCT116 cells and HEK293 cells (Figure 6A). […]
(§2) room temperature and protected from light. Thereafter, the membranes were washed with TBS-T three times for 10 min, and protein bands were acquired using a ChemiDoc MP imaging system (Bio-Rad). Band quantification was performed using Image Lab software and reported as ratio of each protein band relative to […]
(§3) Peak elution was monitored using ultraviolet absorbance at 280 nm.

[3] = system: HEK293 cells; test: Cell viability assay (CellTiter-Glo); format: cell-based; conditions: 72 h
Description: as §1, §2, §3

[4] = ChromLogD (chromatographic); format: physicochemical; conditions: HPLC on Hypersil GOLD-C18 column, pH 7.4
Description: (§4) For the permeabilised-cell assay, 10 µL of digitonin was added, and plates were incubated in darkness for 5 minutes to allow permeabilisation. In each well 10 µL of the 10x PROTAC and vehicle control dilutions were dispensed. A 100x NanoBRET tracer solution (50 µM for VHL permeabilised-cell assay) was prepared with 100% DMSO, then diluted to a 20x solution with tracer dilution buffer. A 5 µL volume of tracer was dispensed into each well at a final concentration of 0.5 µM, and the plate was mixed at 300 RPM for 15 seconds. Finally, 50 µL of a 3x substrate solution (8.8 µL NanoBRET Nano-Glo substrate and 3,500 µL Opti-MEM) was added, and plates were incubated for 1 minute at room temperature before reading on a GloMax Discover as […]
HiBiT Lytic Assay with Zosuquidar Co-treatment
A modified HiBiT lytic assay was used to assess the activity of zosuquidar on the BET degradation. […]
(§5) Luminescence was measured using the GloMax® Multiplex Luminescence and Fluorescence Protocol for 96-well plates. The luminescence signal for each well was normalised to the fluorescence signal and further normalised to the mean values from iPrOH-treated controls, then expressed as a ratio relative to the vehicle control. Curve fitting and DC50 values were determined in GraphPad Prism v.10.0.3 using nonlinear regression with a three-parameter logistic model to calculate DC50 values.
The stock solution of each test item was prepared from a 10mM stock in iPrOH, which was further diluted 1:50 with […] to obtain a 0.2 mM solution (4 µL of the test item stock solution is diluted with 196 µL DMSO) in insert vials. The samples were analysed on an HPLC system equipped with a HPLC-ThermoScientific Hypersil GOLD-C18 column (2.1 x 50 mm, 1.9 µm) and by MS detection using electrospray ionization (ESI) and Atmospheric Pressure Chemical Ionization (APCI) on a Shimadzu LCMS 2050. […]
(§6) of 1 mL/min and a column temperature of 40 °C. […] Data were analysed with Shimadzu Open Solution Data Browser to obtain the RTs of the peak for each individual compound and standards. […]

[5] = LogD7.4 shake flask (octanol/phosphate buffer); format: physicochemical; conditions: octanol/potassium phosphate buffer, pH 7.4
Description: The modulation of lipophilicity could play a critical role in optimizing PROTACs. We thus utilized traditionally measured LogD values from shake flask experiments alongside chromatographically assessed ChromLogD values.[72] […] By incorporating ferrocene, permeability may be improved due to the feature of promoting IMHB-mediated compact conformations, while also balancing the lipophilicity of the polar ligand/PEG linkers. However, while sufficient lipophilicity is required for passive uptake over the cell membrane, it may also drive poor aqueous solubility.[73]
as §4
HiBiT Lytic Assay with Zosuquidar Co-treatment […]
as §5, with “values. […]” for “values.”
as §6
ChromLogD values for the compounds were then calculated based on the regression curve. […]

[6] = Kinetic solubility in phosphate buffer and FeSSIF; format: physicochemical; conditions: kinetic from iPrOH stock
Description: Solubility in Phosphate Buffer and Fed State Simulated Intestinal Fluid (FeSSIF) 8 µL of reference or test compound stock solution (10 mM in iPrOH) was added to 792 μL of 100 mM phosphate buffer (pH 7.4) or FeSSIF (pH 5.8). The resulting mixture was shaken for 1 h (1000 rpm) at room temperature and then centrifuged for 10 min (12 000 rpm) to remove the undissolved particles. The supernatant was collected and diluted 10 times and 100 times separately with 100 mM phosphate buffer or FeSSIF. Five microliters of the supernatant samples (no diluted, 10 times diluted, 100 times diluted) were mixed with 95 μL of acetonitrile (containing internal standard) separately before injecting into LC-MS/MS for analysis. […]

[7] = Plasma stability assay; format: in vitro ADME; conditions: mouse plasma; read-out: stability T1/2 in mouse plasma
Description: Frozen plasma was thawed at 37 °C and centrifuged at 3000 rpm for 8 min to remove clots, and the supernatant was used in the experiment. The pH of the plasma was recorded, and only the pH range between 7.4 and 8 was used. The plasma and compound solution were prewarmed to 37 °C. 10 µL of prewarmed testing compound or reference compound (procaine) solution (20 μM in 0.05 mM sodium phosphate buffer (pH 7.4) with 0.5% BSA) was mixed with 90 μL of plasma at different time points to allow for 5, 15, 30, 45, and 60 min of incubation time. For 0 min, the plasma was mixed with vehicle only. Acetonitrile was added to the compound and plasma mixture to quench the reaction, and the resulting mixture was centrifuged (5594g for 15 min). The

[8] = Mouse liver microsome stability; format: in vitro ADME; conditions: liver microsomes
Description: Mouse Liver Microsome Stability
Testing compound (1.5 μL) or reference compound (500 μM in 5% iPrOH and 95% acetonitrile) was mixed with 18.75 μL of 20 mg/mL liver microsome (Corning) and 479.75 μL of potassium phosphate buffer (0.1 M potassium phosphate buffer, 1 mM EDTA, pH 7.4). The reaction was started by mixing 30 μL of the above mixture (prewarmed to 37 °C) with 15 μL of 6 mM NADPH stock solution (prewarmed to 37 °C). After incubating for 5, 15, 30, or 45 min, 135 μL of acetonitrile containing internal standard was added to stop the reaction. For 0 min, the compound and microsome mixture were mixed with acetonitrile first before adding NADPH. After quenching, the reaction mixture was centrifuged, and the supernatant was taken and diluted for LC-MS

pVHL30 degradation (in words) [1]	IC50 [2] [nM]	chromatographic logD [4]	logD [5]	solubility kinetic at 1 h ([6]; FeSSIF pH 5.8, read-out: kinetic solubility FeSSIF (pH 5.8)) [µM]	solubility kinetic at 1 h ([6]; phosphate buffer, aqueous buffer, PBS pH 7.4, read-out: kinetic solubility PBS (pH 7.4)) [µM]	half-life at 2 µM [7] [h]	CLint scaled at 1 µM ([8]; pH 7.4) [mL/min/kg]	half-life at 1 µM ([8]; pH 7.4, read-out: stability T1/2 in mouse microsome) [min]	SMILES	cytotoxicity in HEK293 cells (in words) [3]
failed to induce significant degradation									Cc1ncsc1-c1ccc([C@H](C)NC(=O)[C@@H]2C[C@@H](O)CN2C(=O)[C@@H](NC(=O)COCCOCCOCCOCCOCCOCC(=O)N[C@H](C(=O)N2C[C@H](O)C[C@H]2C(=O)N[C@@H](C)c2ccc(-c3scnc3C)cc2)C(C)(C)C)C(C)(C)C)cc1 [MeCM11]	
	1330	4.1	3.8	51.1 (≈ 51.2 µg/mL)	22.4 (≈ 22.4 µg/mL)	5.78	2180	2.5	Cc1ncsc1-c1ccc(CNC(=O)C2CC(O)CN2C(=O)C(NC(=O)COCCOCCOCCNC(=O)CC2N=C(c3ccc(Cl)cc3)c3c(sc(C)c3C)-n3c(C)nnc32)C(C)(C)C)cc1 (stereo not shown) [MZ1]	almost no intrinsic cytotoxicity
